Results as given in patent US20120035125A1, “FULVIC ACID IN COMBINATION WITH FLUCONAZOLE OR AMPHOTERICIN B FOR THE TREATMENT OF FUNGAL INFECTIONS” (Natracine UK Limited, priority 2009, published 2012).
≈ marks a conversion by molar mass, not a printed value.

What was measured:
Aspergillus = details: stated to be toxic to the subject; cited from earlier work
Aspergillus terreus = test: In vitro susceptibility (MIC, broth microdilution), CHD-FA and amphotericin B; type: cell-based; details: for MIC: Aspergillus terreus
Protocol: (§1) Each culture was grown on Sabouraud agar at 37° C. for 10 days to ensure purity and to allow spores to mature
(§2) RPMI-1640 (Sigma, Dorset, UK) supplemented to 2% glucose (Sigma), buffered with morpholinopropanesulfonic acid (MOPS), (Sigma) and adjusted to pH 7.0 was used as recommended in the Clinical Laboratory Standards M38A document (Reference method for broth dilution antifungal susceptibility testing of conidium-forming filamentous fungi. Approved standard. Document M38-A 2002a. NCCLS, Wayne, Pa. 2002. NCCLS, Wayne, Pa., USA).
(§3) a) All fungi were cultured in ambient air at 35-37° C. on recovery medium (Sabouraud dextrose agar) for 8-10 days before testing.
(§4) b) Inoculum suspensions were prepared from day 8 to 10 day cultures grown on Sabouraud dextrose agar at 37° C. in vented tissue culture flasks to avoid crosscontamination. Spores were harvested by flooding the surface of the growth with 25 ml of sterile phosphate buffered saline plus 0.05% Tween 80. The spore count was adjusted using a counting chamber.
(§5) c) The inoculum was completely suspended by vigorous shaking on a vortex mixer for 15 s. […] Drug-free and cell-free controls were included. (The RPMI medium used in the plates was prepared at either 2× or 4×the final strength to allow for dilution once the inoculum and diluted CHD-FA was added).
(§6) Sterile plastic, disposable, microtitration plates with 96 flat-bottom wells were used.
(§7) a) Column 1 of the microtitration tray was filled with 100 μL of sterile water containing four times the final drug concentration (16 mg/L amphotericin B).
(§8) b) Columns 2-12 were filled with 50 μL of distilled water
(§9) c) 50 μL amounts were taken from wells in column 1 and diluted two-fold by transferring them to column 2 with a multichannel pipette (±2% coefficient of variation). 50 μL samples were then removed from column 2 and transferred to column 3, and so on through to column 10. The last 50 μL of diluted drug is then discarded. Thus, each well in columns 1-10 will contain 50 μL of water containing four times the final antifungal drug concentrations.
(§10) Stock solutions of CHD-FA were produced containing 4%, 2%, 1%, 0.5% and 0.25% of the native compound.
(§11) 100 μL of the diluted CHD-FA was added to microtitration trays in so that row A contains a final dilution of 2% row B, 1%, row C 0.5%, row D 0.25% row E 0.125% and row F diluent only.
(§12) 50 μL of the diluted spore suspension in 4×RPMI was added to all wells. This produces a well containing 200 μL final volume (made up of 50 μL diluted antifungal, 100 μL diluted CHD-FA or diluent, 50 μL of 4×RPMI containing fungal spores)
(§13) All plates were incubated at 37° C. in air in a darkened incubator.
(§14) Plates were read visually with the endpoint taken as the lowest concentration of drug that inhibited growth by 50% of that of the drug free control.

Aspergillus flavus = test: as above; type: cell-based; details: for MIC: Aspergillus flavus
Protocol: as §1, §2, §3, §4, §5, §6, §7, §8, §9, §10, §11, §12, §13, §14

Aspergillus fumigatus = test: as above; type: cell-based; details: for MIC: Aspergillus fumigatus
Protocol: as §1, §2, §3, §4, §5, §6, §7, §8, §9, §10, §11, §12, §13, §14

Fusarium solani = test: as above; type: cell-based
Protocol: as §1, §2, §3, §4, §5, §6, §7, §8, §9, §10, §11, §12, §13, §14

Absidia corymbifera = test: as above; type: cell-based; details: Lichtheimia corymbifera
Protocol: as §1, §2, §3, §4, §5, §6, §7, §8, §9, §10, §11, §12, §13, §14

SMILES: C[C@@H]1[C@H](O)[C@@H](C)/C=C/C=C/C=C/C=C/C=C/C=C/C=C/[C@H](O[C@@H]2O[C@H](C)[C@@H](O)[C@H](N)[C@@H]2O)C[C@@H]2O[C@](O)(C[C@@H](O)C[C@@H](O)[C@H](O)CC[C@@H](O)C[C@@H](O)CC(=O)O[C@H]1C)C[C@H](O)[C@H]2C(=O)O [Amphotericin B]
- dose required to inhibit Aspergillus (Aspergillus): 3 mg/L
- Amphotericin MIC (Aspergillus terreus; A. terreus strain 1, CHD-FA Dilution 0.125): 0.25 µg/mL
- Amphotericin MIC (Aspergillus terreus; A. terreus strain 1, CHD-FA Dilution 0.25): No Growth
- Amphotericin MIC (Aspergillus terreus; A. terreus strain 1, CHD-FA Dilution 0.5): No Growth
- Amphotericin MIC (Aspergillus terreus; A. terreus strain 2, CHD-FA Dilution 0.125): 0.125 µg/mL
- Amphotericin MIC (Aspergillus terreus; A. terreus strain 2, CHD-FA Dilution 0.25): No Growth
- Amphotericin MIC (Aspergillus terreus; A. terreus strain 2, CHD-FA Dilution 0.5): No Growth
- MIC (Aspergillus terreus; A. terreus isolate 1): 0.5 µg/mL (≈ 0.541 µM)
- MIC (Aspergillus terreus; A. terreus isolate 2): 1 µg/mL (≈ 1.08 µM)
- Amphotericin MIC (Aspergillus flavus; A. flavus strain 1, CHD-FA Dilution 0.125): > 4 µg/mL
- Amphotericin MIC (Aspergillus flavus; A. flavus strain 1, CHD-FA Dilution 0.25): No Growth
- Amphotericin MIC (Aspergillus flavus; A. flavus strain 1, CHD-FA Dilution 0.5): No Growth
- Amphotericin MIC (Aspergillus flavus; A. flavus strain 2, CHD-FA Dilution 0.125): 0.25 µg/mL
- Amphotericin MIC (Aspergillus flavus; A. flavus strain 2, CHD-FA Dilution 0.25): No Growth
- Amphotericin MIC (Aspergillus flavus; A. flavus strain 2, CHD-FA Dilution 0.5): No Growth
- MIC (Aspergillus flavus; A. flavus isolate 1): 4 µg/mL (≈ 4.33 µM)
- MIC (Aspergillus flavus; A. flavus isolate 2): 0.5 µg/mL (≈ 0.541 µM)
- Amphotericin MIC (Aspergillus fumigatus; A. fumigates strain 1, CHD-FA Dilution 0.125): 0.06 µg/mL
- Amphotericin MIC (Aspergillus fumigatus; A. fumigates strain 1, CHD-FA Dilution 0.25): No Growth
- Amphotericin MIC (Aspergillus fumigatus; A. fumigates strain 1, CHD-FA Dilution 0.5): No Growth
- Amphotericin MIC (Aspergillus fumigatus; A. fumigates strain 2, CHD-FA Dilution 0.125): 0.125 µg/mL
- Amphotericin MIC (Aspergillus fumigatus; A. fumigates strain 2, CHD-FA Dilution 0.25): No Growth
- Amphotericin MIC (Aspergillus fumigatus; A. fumigates strain 2, CHD-FA Dilution 0.5): No Growth
- MIC (Aspergillus fumigatus; A. fumigatus isolate 1): 0.5 µg/mL (≈ 0.541 µM)
- MIC (Aspergillus fumigatus; A. fumigatus isolate 2): 0.25 µg/mL (≈ 0.271 µM)
- Amphotericin MIC (Fusarium solani; Fusarium isolate 2): 2.0 µg/mL
- MIC (Fusarium solani; Fusarium solani, Fusarium isolate 1): 2 µg/mL (≈ 2.16 µM)
- MIC (Absidia corymbifera; Absidia isolate 1): 0.25 µg/mL (≈ 0.271 µM)
- MIC (Absidia corymbifera; Absidia isolate 2): 0.06 µg/mL (≈ 0.0649 µM)
